What was measured:
A549 [1] = assay: In vitro rate of inhibition of A-549 tumor cell growth at 10E-4 mol/L; format: functional, Homo sapiens; details: at 100 µM
A549 [2] = assay: In vitro rate of inhibition of A-549 tumor cell growth at 10E-5 mol/L; format: functional, Homo sapiens; details: at 10 µM
A549 [3] = assay: In vitro rate of inhibition of A-549 tumor cell growth at 10E-7 mol/L; format: functional, Homo sapiens; details: at 0.1 µM
A549 [4] = assay: In vitro rate of inhibition of A-549 tumor cell growth at 10E-8 mol/L; format: functional, Homo sapiens; details: at 0.01 µM
P388 [5] = assay: In vitro rate of inhibition of P388 tumor cell growth at 10E-5 mol/L; format: functional, Mus musculus; details: at 10 µM
P388 [6] = assay: In vitro rate of inhibition of P388 tumor cell growth at 10E-6 mol/L; format: functional, Mus musculus; details: at 1 µM
P388 [7] = assay: In vitro rate of inhibition of P388 tumor cell growth at 10E-7 mol/L; format: functional, Mus musculus; details: at 0.1 µM
P388 [8] = assay: In vitro rate of inhibition of P388 tumor cell growth at 10E-8 mol/L; format: functional, Mus musculus; details: at 0.01 µM
A549 [9] = assay: In vitro rate of inhibition of A-549 tumor cell growth at 10E-6 mol/L; format: functional, Homo sapiens; details: at 1 µM
P388 [10] = assay: In vitro rate of inhibition of P388 tumor cell growth at 10E-4 mol/L; format: functional, Mus musculus; details: at 100 µM

Row | Compound | Rate of inhibition (A549 [1]) [%] | Rate of inhibition (A549 [2]) [%] | Rate of inhibition (A549 [3]) [%] | Rate of inhibition (A549 [4]) [%] | Rate of inhibition (P388 [5]) [%] | Rate of inhibition (P388 [6]) [%] | Rate of inhibition (P388 [7]) [%] | Rate of inhibition (P388 [8]) [%] | Rate of inhibition (A549 [9]) [%] | Rate of inhibition (P388 [10]) [%]
1 | COc1ccccc1NC(=O)N1N=C(C)N(C(=O)Nc2ccccc2OC)N=C1C | 80 | 0 | 0 | 0 | 17.2 | 1.6 | 0 | 0 | 0 | 59.4
2 | CCCCCOC(=O)N1N=C(C)N=NC1C (configuration not stated) | 22.8 | 4.6 | 1.1 | 7.6 | 19.8 | 7.3 | 0 | 0 | 0 | 42.6
3 | CCCOC(=O)N1N=C(C)N=NC1C (configuration not stated) | 16.7 | 11 | 0 | 0 | 13.5 | 9 | 8.7 | 5.2 | 0 | 34.8
4 | CCCC1=NN(C(=O)OC2CCCCC2)C(CCC)N=N1 (configuration not stated) | 25.8 | 5.2 | 18.1 | 1 | 33.6 | 38.3 | 44.8 | 4.5 | 23.5 | 44
5 | CC1=NN(C(=O)Nc2cccc(N(C)C)c2)C(C)=NN1C(=O)Nc1cccc(N(C)C)c1 | 93.2 | 83 | 73.9 | 69.3 | 84.3 | 89.8 | 88.9 | 90.7 | 80.7 | 95.4
6 | CCCC1=NN(C(=O)Nc2cccc(Cl)c2)C(CCC)=NN1C(=O)Nc1cccc(Cl)c1 | 91.3 | 88.4 | 10.8 | 0 | 58.7 | 0 | 0 | 0 | 59.6 | 84.4
7 | CC1=NN(C(=O)OCCC(C)C)C(C)N=N1 (configuration not stated) | 0 | 0 | 0 | 0 | 17.8 | 13.6 | 0.8 | 0 | 0 | 28.8
8 | CC1=NN(C(=O)Nc2cc(C)cc(C)c2)C(C)=NN1C(=O)Nc1cc(C)cc(C)c1 | 86.4 | 73.9 | 0 | 0 | 91.7 | 31.5 | 0 | 0 | 37.5 | 90.7
9 | CC1=NN(C(=O)OCc2ccccc2)C(C)N=N1 (configuration not stated) | 0 | 0 | 0 | 0 | 3 | 2 | 2.3 | 1 | 0 | 24.1
10 | COC(=O)N1N=C(C)N=NC1C (configuration not stated) | 75.9 | 19.6 | 0 | 0 | 7.8 | 0 | 11.3 | 5.7 | 0 | 60.5
11 | CCCC1=NN(C(=O)Nc2cccc(C)c2)C(CCC)=NN1C(=O)Nc1cccc(C)c1 | 93.3 | 84.2 | 4 | 0 | 63.9 | 0 | 4.8 | 0 | 74.1 | 81.6
12 | CCCCCOC(=O)N1N=C(CCC)N=NC1CCC (configuration not stated) | 0 | 0.7 | 0 | 2.5 | 7.7 | 5.6 | 0 | 0 | 2.3 | 32.8
13 | CCOC(=O)N1C(c2ccccc2)=NN=C(c2ccccc2)N1C(=O)OCC | 95.3 | 10.8 | 0 | 0 | 35.6 | 7 | 4.9 | 2.8 | 0 | 93.9
14 | CCCCC1NN(C(C)=O)C(CCCC)NN1C(C)=O (configuration not stated) | 47.6 | 13.1 | 4.8 | 0 | 0 | 0 | 0 | 0 | 6.4 | 37.9
15 | Clc1cccc(-c2nnc(-c3cccc(Cl)c3)nn2)c1 | 0 | 0 | 0 | 0 | 26.5 | 33.2 | 13.5 | 4.3 | 0 | 40.3
16 | Cc1cccnc1-c1nnc(-c2ncccc2C)nn1 | 0 | 0 |  |  | 3.6 |  |  |  |  | 2.6
17 | CCCC1=NN(C(=O)Nc2ccccc2)C(CCC)=NN1C(=O)Nc1ccccc1 | 56.6 | 78.3 | 6.1 | 2.5 | 61.5 | 22.8 | 4.4 | 4.1 | 48.3 | 85.4
18 | COc1ccccc1C(=O)N1N=C(c2ccccc2)NN=C1c1ccccc1 | 90.9 | 72.6 | 0 | 0 | 25.2 | 7.4 | 0.8 | 0 | 4.7 | 64.5
19 | c1ccc(C2=NNC(c3ccccc3)=NN2)cc1 | 87.6 | 69 | 0 |  | 67.2 | 5.4 | 10.2 |  | 0 | 55.8

— ChEMBL document CHEMBL1147590, “Synthesis and antitumor activity of s-tetrazine derivatives” (Bioorg Med Chem Lett, 2004)
